From ChEMBL document CHEMBL5346933, “Design and synthesis of novel arylurea derivatives of aryloxy(1-phenylpropyl) alicyclic diamines with antimicrobial activity against multidrug-resistant Gram-positive bacteria” (Eur J Med Chem, 2023)
In brackets after ≈: the same amount, converted by molar mass. Activity calls are given as the source filed them. The rule behind the calls is not given here.

What was measured:
Staphylococcus aureus [1] = experiment: Antibacterial activity against Staphylococcus aureus Newman assessed as inhibition of bacterial growth incubated for 18 hrs by broth microdilution method; format: functional
Staphylococcus aureus [2] = experiment: Antibacterial activity against methicillin-susceptible Staphylococcus aureus ATCC 25923 assessed as inhibition of bacterial growth measured for 18 hrs by OD600 based analysis; format: functional, organism-based
Staphylococcus aureus [3] = experiment: Antibacterial activity against methicillin-resistant Staphylococcus aureus clinical strain 19449 assessed as inhibition of bacterial growth incubated for 18 hrs by broth microdilution method; format: functional
Staphylococcus aureus [4] = experiment: Ratio of MBC to MIC for biofilm producer Staphylococcus aureus RN450; format: functional
Cell membrane [5] = experiment: Induction of cell membrane depolarization in Staphylococcus aureus Newman assessed as bacterial cells with polarized membrane potential at 4 times MIC incubated for 25 to 30 mins by DiOC2(3) probe based flow cytometry (reference value: 94.3%); format: subcellular; conditions: time 25-30 min
[6] = Metabolic stability in rat liver microsomes assessed as parent compound remaining at 0.4 mg/ml preincubated for 10 mins followed by NADPH-regenerating system addition for 60 mins by UPLC-MS analysis; format: ADME, Microsome; conditions: time 70 min, read-out: Stability
Staphylococcus aureus [7] = experiment: Ratio of MBC to MIC for vancomycin-intermediate Staphylococcus aureus ATCC 700699; format: functional
Cell membrane [8] = experiment: Induction of cell membrane depolarization in Staphylococcus aureus Newman assessed as bacterial cells with depolarized membrane potential at 4 times MIC incubated for 25 to 30 mins by DiOC2(3) probe based flow cytometry (reference value: 1.6%); format: subcellular; conditions: time 25-30 min
Staphylococcus aureus [9] = experiment: Bactericidal activity against vancomycin-intermediate Staphylococcus aureus ATCC 700699 assessed as log reduction of bacterial colony forming units at 4 times MIC incubated for 8 hrs in broth followed by culturing on agar plate for 24 hrs by time-killing assay; format: functional; conditions: time 32 hrs
Enterococcus faecium = experiment: Ratio of MBC to MIC for vancomycin-resistant Enterococcus faecium clinical strain; format: functional
Cell membrane [10] = experiment: Induction of cell membrane depolarization in vancomycin-resistant Enterococcus faecium clinical strain assessed as bacterial cells with polarized membrane potential at 4 times MIC incubated for 25 to 30 mins by DiOC2(3) probe based flow cytometry (reference value: 96.8%); format: subcellular; conditions: time 25-30 min
Cell membrane [11] = experiment: Induction of cell membrane depolarization in methicillin-resistant Staphylococcus aureus 19449 assessed as bacterial cells with polarized membrane potential at 4 times MIC incubated for 25 to 30 mins by DiOC2(3) probe based flow cytometry (reference value: 98.8%); format: subcellular; conditions: time 25-30 min
Cell membrane [12] = experiment: Induction of cell membrane depolarization in vancomycin-resistant Enterococcus faecium clinical strain assessed as ratio of red to green fluorescence intensity at MIC incubated for 25 to 30 mins by DiOC2(3) probe based flow cytometry; format: subcellular; conditions: time 25-30 min
Pseudomonas aeruginosa = experiment: Antibacterial activity against Pseudomonas aeruginosa ATCC 27853 assessed as inhibition of bacterial growth incubated for 18 hrs by broth microdilution method; format: functional
Staphylococcus aureus [13] = experiment: Bactericidal activity against vancomycin-intermediate Staphylococcus aureus ATCC 700699 assessed as reduction in colony forming units incubated for 18 hrs in broth followed by culturing on agar plate for 24 hrs; format: functional; conditions: time 42 hrs, read-out: MBC99.9
Staphylococcus aureus [14] = experiment: Antibacterial activity against vancomycin-intermediate Staphylococcus aureus ATCC 700699 assessed as inhibition of bacterial growth measured for 18 hrs by OD600 based analysis; format: functional, organism-based
Cell membrane [15] = experiment: Induction of cell membrane depolarization in methicillin-resistant Staphylococcus aureus 19449 assessed as bacterial cells with polarized membrane potential at MIC incubated for 25 to 30 mins by DiOC2(3) probe based flow cytometry (reference value: 98.8%); format: subcellular; conditions: time 25-30 min
Staphylococcus aureus [16] = experiment: Bactericidal activity against methicillin-susceptible Staphylococcus aureus ATCC 25923 assessed as reduction in colony forming units incubated for 18 hrs in broth followed by culturing on agar plate for 24 hrs; format: functional; conditions: time 42 hrs, read-out: MBC99.9
[17] = tested on: Staphylococcus epidermidis; experiment: Antibacterial activity against biofilm producer Staphylococcus epidermidis ATCC 35984 assessed as inhibition of bacterial growth incubated for 18 hrs by broth microdilution method; format: functional
Cell membrane [18] = experiment: Induction of cell membrane depolarization in vancomycin-resistant Enterococcus faecium clinical strain assessed as bacterial cells with polarized membrane potential at MIC incubated for 25 to 30 mins by DiOC2(3) probe based flow cytometry (reference value: 96.8%); format: subcellular; conditions: time 25-30 min
Cell membrane [19] = experiment: Induction of cell membrane depolarization in Staphylococcus aureus Newman assessed as bacterial cells with polarized membrane potential at 2XMIC incubated for 25 to 30 mins by DiOC2(3) probe based flow cytometry (reference value: 94.3%); format: subcellular; conditions: time 25-30 min
Streptococcus pneumoniae [20] = experiment: Antibacterial activity against macrolides-lincosamides and streptogramins B-resistant Streptococcus pneumoniae O/19/4199 assessed as inhibition of bacterial growth incubated for 18 hrs by broth microdilution method; format: functional
Cell membrane [21] = experiment: Induction of cell membrane depolarization in Staphylococcus aureus Newman assessed as bacterial cells with depolarized membrane potential at MIC incubated for 25 to 30 mins by DiOC2(3) probe based flow cytometry (reference value: 1.6%); format: subcellular; conditions: time 25-30 min
Cell membrane [22] = experiment: Induction of cell membrane depolarization in Staphylococcus aureus Newman assessed as ratio of red to green fluorescence intensity at MIC incubated for 25 to 30 mins by DiOC2(3) probe based flow cytometry; format: subcellular; conditions: time 25-30 min
Cell membrane [23] = experiment: Induction of cell membrane depolarization in Staphylococcus aureus Newman assessed as bacterial cells with depolarized membrane potential at 2XMIC incubated for 25 to 30 mins by DiOC2(3) probe based flow cytometry (reference value: 1.6%); format: subcellular; conditions: time 25-30 min
Cell membrane [24] = experiment: Induction of cell membrane depolarization in methicillin-resistant Staphylococcus aureus 19449 assessed as bacterial cells with depolarized membrane potential at 4 times MIC incubated for 25 to 30 mins by DiOC2(3) probe based flow cytometry (reference value: 0.7%); format: subcellular; conditions: time 25-30 min
Staphylococcus aureus [25] = experiment: Bactericidal activity against vancomycin-intermediate Staphylococcus aureus ATCC 700699 assessed as log reduction of bacterial colony forming units at 4 times MIC incubated for 20 hrs in broth followed by culturing on agar plate for 24 hrs by time-killing assay; format: functional; conditions: time 44 hrs
Cell membrane [26] = experiment: Induction of cell membrane depolarization in methicillin-resistant Staphylococcus aureus 19449 assessed as ratio of red to green fluorescence intensity at MIC incubated for 25 to 30 mins by DiOC2(3) probe based flow cytometry; format: subcellular; conditions: time 25-30 min
Streptococcus pneumoniae [27] = experiment: Antibacterial activity against Oxacillin-resistant Streptococcus pneumoniae O/19/4541 assessed as inhibition of bacterial growth incubated for 18 hrs by broth microdilution method; format: functional
[28] = Induction of hemolysis in horse RBC at 200 uM incubated for 1 hr; format: toxicity, cell-based, Equus caballus, Erythrocyte; conditions: horse red blood cells (erythrocytes), read-out: Activity
[29] = tested on: Staphylococcus epidermidis; experiment: Antibacterial activity against linezolid-resistant Staphylococcus epidermidis NIL 4399/19 assessed as inhibition of bacterial growth incubated for 18 hrs by broth microdilution method; format: functional
Cell membrane [30] = experiment: Induction of cell membrane depolarization in vancomycin-resistant Enterococcus faecium clinical strain assessed as bacterial cells with depolarized membrane potential at 2XMIC incubated for 25 to 30 mins by DiOC2(3) probe based flow cytometry (reference value: 0.8%); format: subcellular; conditions: time 25-30 min
[31] = tested on: Staphylococcus epidermidis; experiment: Bactericidal activity against biofilm producer Staphylococcus epidermidis ATCC 35984 assessed as reduction in colony forming units incubated for 18 hrs in broth followed by culturing on agar plate for 24 hrs; format: functional; conditions: time 42 hrs, read-out: MBC99.9
Klebsiella pneumoniae = experiment: Antibacterial activity against Klebsiella pneumoniae ATCC 700603 assessed as inhibition of bacterial growth incubated for 18 hrs by broth microdilution method; format: functional

In the case of `O=C(Nc1cccc(Cl)c1)NC1CCN(CCC(Oc2cccc(C(F)(F)F)c2)c2ccccc2)CC1` (racemic), the MIC (Staphylococcus aureus [1]) is reported as 1.56 µg/mL (≈ 2.93 µM), the Activity (Staphylococcus aureus [2]) is reported as “Active” and the MIC (Staphylococcus aureus [3]) is reported as 0.78 µg/mL (≈ 1.47 µM). The Ratio (Staphylococcus aureus [4]) was 4, the Activity (Cell membrane [5]) was 0% and the remaining at 1 h [6] was 95%. It also gave a Ratio (Staphylococcus aureus [7]) of 4, an Activity (Cell membrane [8]) of 89.8% and an Activity (Staphylococcus aureus [9]) of 2 log10CFU/ml. For the same molecule, the Ratio (Enterococcus faecium) was 4, the Activity (Cell membrane [10]) was 1.5% and the Activity (Cell membrane [11]) was 0%. The Ratio (Cell membrane [12]) was 0.2, the MIC (Pseudomonas aeruginosa) was > 12.5 µg/mL and the MBC (Staphylococcus aureus [13]) was 12.5 µg/mL (≈ 23.5 µM). The Activity (Staphylococcus aureus [14]) was “Active”, the Activity (Cell membrane [15]) was 6% and the MBC (Staphylococcus aureus [16]) was 12.5 µg/mL (≈ 23.5 µM). The MIC [17] was 1.56 µg/mL (≈ 2.93 µM), the Activity (Cell membrane [18]) was 59.3% and the Activity (Cell membrane [19]) was 0.1%. The MIC (Streptococcus pneumoniae [20]) was 6.25 µg/mL (≈ 11.7 µM), the Activity (Cell membrane [21]) was 89% and the Ratio (Cell membrane [22]) was 0.27. For the same molecule, the Activity (Cell membrane [23]) was 89.3%, the Activity (Cell membrane [24]) was 96.4% and the Activity (Staphylococcus aureus [25]) was “>=3 log10CFU/ml”. For the same molecule, the Ratio (Cell membrane [26]) was 0.53, the MIC (Streptococcus pneumoniae [27]) was 12.5 µg/mL (≈ 23.5 µM) and the hemolysis at 1 h, 200 µM [28] was < 1%. It also gave an MIC [29] of 3.12 µg/mL (≈ 5.87 µM), an Activity (Cell membrane [30]) of 92.7% and an MBC [31] of 6.25 µg/mL (≈ 11.7 µM). For the same molecule, the MIC (Klebsiella pneumoniae) was > 12.5 µg/mL.
